In US20210189330A1, “INDUCED TOTIPOTENT STEM CELLS AND METHODS FOR MAKING AND USING THE SAME” (THE J. DAVID GLADSTONE INSTITUTES, A TESTAMENTARY TRUST …, priority 2017, published 2021):

System: mEpiSCs
Assay: mEpiSC conversion culture in first conversion media with Smad inhibitor
Type: cell-based, mouse
Settings: 1 μM on Day 0, 3 μM from Days 1-3; observed Conversion Day 1
Experimental: Under the conditions tested, the conversion bias toward floating iBCs was less efficient; therefore, more cells were required than for the 3D hemispheres (discussed in example above) in order to observe or harvest iBCs. It is contemplated that optimization of timing and Smad inhibition may vary depending on the cell type used. […] Two phases of media were prepared and cells were fed from days 0-3 (“first conversion media”) and then days 4-7 (“second conversion media”), respectively.
At Conversion Day 0, approximately 14 hours after preparation of mEpiSCs for conversion, cells were observed as evenly dispersed, mostly single cells. The first conversion media was prepared using CTSFES media with Pen/Strep and 2-Mercaptoethanol described above as the base media and supplemented with BMP4 (10 ng/mL), SB431542 (1 μM on Day 0, 3 μM from Days 1-3), and AA (64 μg/mL). On Conversion Day 1, cells were observed growing with some cells remaining colony-like while others began to flatten at the edges. (FIG. 4). […] At approximately the same time each day, media was replaced and cells were incubated overnight at 37° C.

NC(=O)c1ccc(-c2nc(-c3ccc4c(c3)OCO4)c(-c3ccccn3)[nH]2)cc1 [SB431542]
toxicity to starting mEpiSCs: toxicity was also believed to be killing some cells
